Results taken from patent US7618957B2, “Perfluoroalkyl-containing complexes, process for their production as well as their use” (Bayer Schering Pharma Aktiengesellschaft, priority 2005, dated 2009).

Key:
[1] = Relaxivity (T1 and T2 relaxation times) in water, NMR pulse spectrometer Minispec PC 20; type: physicochemical; settings: 40° C., 0.47 T
Procedure: (§1) The T1 and T2 relaxation times of water and plasma (bovine) with increasing concentrations of the gadolinium complexes of the title substances of Examples 1d, 5c, 14c, 15c contained therein were determined at 40° C. with use of an NMR pulse spectrometer (Minispec PC 20) at 0.47 T. The results are set forth in Table 1.

[2] = Relaxivity (T1 and T2 relaxation times) in plasma (bovine), NMR pulse spectrometer Minispec PC 20; type: physicochemical; settings: 40° C., 0.47 T
Procedure: as §1

mice = experiment: Acute toxicity after one-time intravenous administration in mice (preliminary); type: in vivo; settings: one-time i.v., observation period of 7 days
Procedure: After intravenous administration of the gadolinium complexes of the title substances of Examples 1d, 5c, 14c, 15c in mice (n=3; rate of injection: 2 ml/min), the acute systemic compatibility (LD50) was determined preliminarily. In each case, several dosages with an observation period of 7 days were examined. The acute toxicities that are to be expected can be seen in Table 1.

[3] = Excretion after intravenous administration in rats (ICP-AES); type: in vivo; settings: 50 μmol of total gadolinium/kg i.v., 14 days after administration
Procedure: After intravenous administration of 50 μmol of total gadolinium/kg of body weight of the gadolinium complexes of the title substances of Examples 1d, 5c, 14c, 15c in rats (n=3), the metal content was determined in fractions up to 14 days after administration by means of atom emission spectrometry (ICP-AES) in the excretion media of urine and feces, as well as in the body (the rest of the body).

[4] = Plasma kinetics after intravenous administration in rats (ICP-AES); type: in vivo; settings: 50 μmol of total gadolinium/kg i.v.; for Elimination Half-Life of Blood: calculated with WinNonlin from plasma concentrations
Procedure: After intravenous administration of 50 μmol of total gadolinium/kg of body weight of the gadolinium complexes of the title substances of Examples 1d, 5c, 14c, 15c in rats (n=3), blood samples were taken via a catheter in the common carotid artery at different points in time ([…].), the metal content was determined by means of atom emission spectrometry (ICP-AES) and converted to plasma values via a conversion factor (0.625). The elimination half-life was calculated by means of special software (WinNonlin) from the plasma concentrations.

[5] = test system: VX2-tumor-carrying rabbits; experiment: MRT visualization of lymph node metastases and primary tumors in VX2-tumor-carrying rabbits; type: in vivo; settings: rabbits with i.m. implanted VX2 tumors, 50 μmol of Gd/kg i.v.
Procedure: The pictures of FIGS. 1 and 2 show MR images of iliac lymph nodes precontrast as well as up to 24 hours after intravenous administration of 50 μmol of Gd/kg of body weight of the title substance of Example 1d) in rabbits with i.m. implanted VX2 tumors. […] Zones where there was no signal rise within the lymph node were diagnosed as metastases and confirmed histologically (H/E staining of the lymph node sections) (FIG. 1).
At later times (24 hours p.i.), this enhancement also propagates toward the center of the tumor.

[6] = test system: arteriosclerotic plaque of WHHL rabbits; experiment: MRT visualization of arteriosclerotic plaque after intravenous administration; type: in vivo, Watanabe rabbits; settings: 50 μmol of Gd/kg i.v., 6 or 24 hours after administration
Procedure: The pictures of FIG. 3 show MR images of the aorta 6 or 24 hours after intravenous administration of 50 μmol of Gd/kg of body weight of the title substances from Example 1d) and Example 14c in Watanabe rabbits (WHHL rabbits; genetically-induced arteriosclerosis) and in control animals without arteriosclerosis (white New Zealanders). […] The localization of the plaque, especially in the aortic arch as well as in the vascular passages, was confirmed by means of Sudan-3 staining. With this test, the suitability of the compounds according to the invention as markers for arteriosclerotic plaque could be shown.

popliteal lymph nodes = experiment: MRT visualization of lymph nodes after intravenous administration in rats; type: in vivo; settings: 50 μmol of Gd/kg i.v., up to 60 minutes p.i.
Text: By way of example, the pictures show MR images of popliteal lymph nodes at different points in time after intravenous administration of 50 μmol of Gd/kg of body weight of the title substance from Example 5c), title substance from Example 14c) and title substance from Example 15c) in rats.

[7] = test system: inflammatory muscle lesions and necrotic areas; experiment: MRT visualization of inflammatory lesions and necrotic areas in rats; type: in vivo; settings: Rose Bengal/xenon lamp induced lesion, 50 μmol of Gd/kg i.v.
Procedure: By way of example, the pictures of FIG. 4 show MR images of inflammatory muscle lesions as well as necrotic areas at different points in time after intravenous administration of 50 μmol of Gd/kg of body weight of the title substance of Example 14c in rats. The inflammation/necrosis was induced by intravenous administration of Rose Bengal (20 mg/kg; 24 hours before the administration of contrast medium) and subsequent 20-minute irradiation with a xenon lamp.

SMILES	Relaxivity R1(w) = R1-relaxivity in water [1]	Relaxivity R1(p) = R1-relaxivity in plasma [2]	LD50 Mouse (mice)	Body Retention 14 days [3]	Gd Content of Blood 24 Hours p.i. [4]	Elimination Half-Life of Blood [4]	signal rise in healthy lymph node tissue (iliac lymph nodes), T1-weighted turbo-spin-echo MR images ([5]; 15 to 60 minutes p.i.)	enhancement in the primary tumor, MR images ([5]; immediately after administration)	signal rise in the arteriosclerotic plaque, T1-weighted inversion-recovery MR images of the aorta [6]	signal rise in the functional lymph node tissue (popliteal lymph nodes), T1-weighted turbo-spin-echo MR images (popliteal lymph nodes)	signal rise in the central necrosis, T1-weighted turbo-spin-echo MR images ([7]; 24 hours p.i.)	signal rise in the inflammatorily altered tissue, T1-weighted turbo-spin-echo MR images ([7]; up to 60 minutes p.i.)
CC(C(=O)NCC(=O)NCCN(CCC(F)(F)C(F)(F)C(F)(F)C(F)(F)C(F)(F)C(F)(F)C(F)(F)C(F)(F)F)C(=O)CO[C@H]1O[C@H](CO)[C@@H](O)[C@H](O)[C@@H]1O)N1CCN(CC(=O)[O-])CCN(CC(=O)[O-])CCN(CC(=O)[O-])CC1.[Gd+3] (stereo partly drawn) [Example 1, N-{[1,4,7-Tris-(carboxylatomethyl)-1,4,7,10-tetracyclododecane-10-N-(pentanoyl-3-aza-4-oxo-5-methyl-5-yl)]-2-aminoethyl}-N-(1H,1H,2H,2H-perfluorodecyl)-2-(1-O-α-d-mannopyranosyl)-acetamide, Gd Complex]	R1(w): 22.7 1/(mmol * s)	R1(p): 25.8 1/(mmol * s)	>10 mmol/kg	0.0%	0.7%	4.8 h	strong signal rise	clear enhancement	strong signal rise			
COCCOCCOCC(=O)N(CCNC(=O)CNC(=O)C(C)N1CCN(CC(=O)[O-])CCN(CC(=O)[O-])CCN(CC(=O)[O-])CC1)CCC(F)(F)C(F)(F)C(F)(F)C(F)(F)C(F)(F)C(F)(F)C(F)(F)C(F)(F)F.[Gd+3] (centres unmarked) [Example 5, N-{[1,4,7-Tris-(carboxylatomethyl)-1,4,7,10-tetraazacyclododecane-10-N-(pentanoyl-3-aza-4-oxo-5-methyl-5-yl)]-2-aminoethyl}-N-(1H,1H,2H,2H-perfluorodecyl)-2-[2-(2-methoxyethoxy)-ethoxy]-acetamide, Gd Complex]	R1(w): 18.9 1/(mmol * s)	R1(p): 24.8 1/(mmol * s)		0.0%	0.0%	0.8 hour hours				strong signal rise		
COCCOCCOCCOCC(=O)N(CCNC(=O)CNC(=O)C(C)N1CCN(CC(=O)[O-])CCN(CC(=O)[O-])CCN(CC(=O)[O-])CC1)CCC(F)(F)C(F)(F)C(F)(F)C(F)(F)C(F)(F)C(F)(F)C(F)(F)C(F)(F)F.[Gd+3] (centres unmarked) [Example 14, N-{[1,4,7-Tris-(carboxylatomethyl)-1,4,7,10-tetraazacyclododecane-10-N-(pentanoyl-3-aza-4-oxo-5-methyl-5-yl)]-2-aminoethyl}-N-(1H,1H,2H,2H-perfluorodecyl)-2-{-2-[2-(2-methoxyethoxy)-ethoxy]-ethoxy}-acetamide, Gd Complex]	R1(w): 18.6 1/(mmol * s)	R1(p): 25.5 1/(mmol * s)	7.5 mmol/kg	0.0%	0.0%	1.1 h			strong signal rise	strong signal rise	delayed signal rise	strong signal rise
COCCOCC(=O)N(CCNC(=O)CNC(=O)C(C)N1CCN(CC(=O)[O-])CCN(CC(=O)[O-])CCN(CC(=O)[O-])CC1)CCC(F)(F)C(F)(F)C(F)(F)C(F)(F)C(F)(F)C(F)(F)C(F)(F)C(F)(F)F.[Gd+3] (centres unmarked) [Example 15, N-{[1,4,7-Tris-(carboxylatomethyl)-1,4,7,10-tetraazacyclododecane-10-N-(pentanoyl-3-aza-4-oxo-5-methyl-5-yl)]-2-aminoethyl}-N-(1H,1H,2H,2H-perfluorodecyl)-2-(2-methoxyethoxy)-acetamide, Gd Complex]	R1(w): 17.2 1/(mmol * s)	R1(p): 24.6 1/(mmol * s)	>10 mmol/kg	0.0%	0.2%	4.8 h				strong signal rise		
